Measurements taken from US4938964A, “External dermatological composition” (Showa Denko Kabushiki Kaisha, priority 1987, dated 1990).

Columns and labels:
[1] = Evaluation Example 1: drug absorption to skin from residual drug amount, HPLC; settings: formulated into the (meth)acrylic copolymer used in the present invention; Table 1
Method: The tape preparation or poultice preparation was peeled off 24 hours after application, and the drug remaining on the applied site was wiped off with defatted cotton containing 1 ml of distilled water. The tape preparation or poultice preparation peeled off was stirred in 200 ml of hot ethanol for 2 hours to extract the drug, cooled to room temperature, and then brought to a constant volume of 200 ml with ethanol. To 5 ml of the solution was added 5 ml of an internal standard substance (300 μg/ml of an aqueous flulubiprofen solution was used), and after bringing to a constant volume of 50 ml with ethanol, the residual drug amount was measured by high performance liquid chromatography (hereinafter abbreviated as HPLC). The defatted cotton was stirred in 200 ml of distilled water for 2 hours to extract the drug, and to 5 ml of the solution was added 5 ml of the internal standard substance. After the mixture was brought to a constant volume of 50 ml with distilled water, the remaining drug amount was measured by HPLC.
The ointment was wiped off with defatted cotton containing ethanol (10 ml of ethanol content) 24 hours after application. […] To 5 ml of the solution was added 5 ml of the above internal standard substance, and after bringing to 50 ml with ethanol, the remaining drug amount was measured by HPLC.

[2] = Evaluation Example 3: remaining drug amount in tape preparation after storage; format: physicochemical; settings: formulated into the (meth)acrylic copolymer used in the present invention; Table 3
Method: The tape preparation prepared in Example 4 and Comparative Examples 8 and 9 were cut into 7×10 cm squares and were placed in a polyethylene-aluminum laminate bag and all four sides of the bag were sealed.
The tape agent was stored at 40° C. and 75% R.H. for 3 months and the remaining drug amount in the tape preparation was measured in the same manner as in Evaluation Example 1.
From the residual amount of drug measured, the drug remaining rate was calculated by the following formula: [formula]

[3] = keratin soluble enzyme, N-acylsarcosine, aliphatic monoalkylolamide, or organic acid added; cited from earlier work
[4] = adhesives containing polar monomers; cited from earlier work

| Structure (SMILES) | percutaneous absorption of the drug (in words) [1] | chemical stability in the preparations (in words) [2] | enhancement of the absorption by additive substance [3] | amount formulated at which crystals are not precipitated [4] |
| --- | --- | --- | --- | --- |
| O=C(O)Cc1ccccc1Nc1c(Cl)cccc1Cl [diclofenac sodium] | poor | poor |  |  |
| CC(C(=O)O)c1cccc(Oc2ccccc2)c1 (stereo not shown) [fenoprofen] |  |  | 2 -fold |  |
| COc1ccc2c(c1)c(CC(=O)O)c(C)n2C(=O)c1ccc(Cl)cc1 [indomethacin] | poor | poor | 2 -fold |  |
| CC(C(=O)O)c1cccc(C(=O)c2ccccc2)c1 (stereo not shown) [ketoprofen, 3-Benzoylhydratropic acid] |  |  |  | about 40 % by weight |
